Data on 3 compounds can be found in patent publication US7056945B1, “Selective inhibition of neuronal nitric oxide synthase” (priority 2002, dated 2006).

For one assay, the target named is wild type nNOS (Rattus norvegicus, UniProt P29476). As to the kind of experiment: Ki for inhibition of wild type nNOS. The class given is biochemical. From the text: (§1) We next tested this hypothesis by producing D597N nNOS and N368D eNOS mutant proteins.
The next assay has as its target N368D eNOS mutant (Bos taurus, UniProt P29473, N368D). Put plainly: Ki for inhibition of N368D eNOS mutant. Conditions: Asn368 replaced with Asp in eNOS (N368D eNOS mutant). In kind it is biochemical.
Source text: as §1

The next assay deals with T1, D597N nNOS mutant (Rattus norvegicus, UniProt P29476, D597N).
T1 construct: made in house
As to the kind of experiment: Ki for inhibition of D597N nNOS mutant. In kind it is biochemical.
Source text: as §1

For the next assay, the system named is NOS. The conditions noted are these: cited from earlier work.
The next assay concerns all three NOS isoforms. Conditions: similar for all three NOS isoforms; cited from earlier work.

For orientation: Ki means the equilibrium dissociation constant of an inhibitor or competing ligand from its target. Read a high Ki as weaker binding. As to `NC(=O)[C@@H]1C[C@@H](N)CN1C(=O)[C@@H](N)CCC/N=C(\N)N[N+](=O)[O-]` [DIP3, L-N^□-nitroarginine-(4R)-amino-L-proline amide], the results for the Ki on wild type nNOS, at N368D eNOS mutant and on D597N nNOS mutant were 0.097 µM, 5.1 µM and 21 µM, respectively.

As to `N=C(NCCC[C@H](N)C(=O)O)N[N+](=O)[O-]` [L-NNA, L-N^ω-nitroarginine], the potency result in the assay on NOS (L-NNA bound in the active site of eNOS (FIG. 1C legend)) is “low nM”. Further, the “selectivity between NOS isoforms” value in the assay on NOS is listed as “poor selectivity”.

For `N=C(N)NCCC[C@H](N)C(=O)O` [L-arginine], in the assay on all three NOS isoforms, the Km entry is listed as “low μM range”.
